Reference: US7410986B2, “4-6-diphenyl pyridine derivatives as antiinflammatory agents” (Bayer Aktiengesellschaft, priority 2000, dated 2008)

What was measured:
[1] = biological target: T1, human IKK-β (Homo sapiens, UniProt O14920); assay: IKK-β kinase inhibitory assay; assay type: biochemical; settings: compounds of about 40 to 90% purity, read-out: In vitro activity grade (invitro, IC50)
T1 construct: A cDNA fragment encoding human IKK-β open reading frame was generated by PCR; His; made in house; host or cells: Sf21 insect cells (baculovirus); the GST-IκBα substrate was made in E. coli
T1 sequence (O14920 1-756): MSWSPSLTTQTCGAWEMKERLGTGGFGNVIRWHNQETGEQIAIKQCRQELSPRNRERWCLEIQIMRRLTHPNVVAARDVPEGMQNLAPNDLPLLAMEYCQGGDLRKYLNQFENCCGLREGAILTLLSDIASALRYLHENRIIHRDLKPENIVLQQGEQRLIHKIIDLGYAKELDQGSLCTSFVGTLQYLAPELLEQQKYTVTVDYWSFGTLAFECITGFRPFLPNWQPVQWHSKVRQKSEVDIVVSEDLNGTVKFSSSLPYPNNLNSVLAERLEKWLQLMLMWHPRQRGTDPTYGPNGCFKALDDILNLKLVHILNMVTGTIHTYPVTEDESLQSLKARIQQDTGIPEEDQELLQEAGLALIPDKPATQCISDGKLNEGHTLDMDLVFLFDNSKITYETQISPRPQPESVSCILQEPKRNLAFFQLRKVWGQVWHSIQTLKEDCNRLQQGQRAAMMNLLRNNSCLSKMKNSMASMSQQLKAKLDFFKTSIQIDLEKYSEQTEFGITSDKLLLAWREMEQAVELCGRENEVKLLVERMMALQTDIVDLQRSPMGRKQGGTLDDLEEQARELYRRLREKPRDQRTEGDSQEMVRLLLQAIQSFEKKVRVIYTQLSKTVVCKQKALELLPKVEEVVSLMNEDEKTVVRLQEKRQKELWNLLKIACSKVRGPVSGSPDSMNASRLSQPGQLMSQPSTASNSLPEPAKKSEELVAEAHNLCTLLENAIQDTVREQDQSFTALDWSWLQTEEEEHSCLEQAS
Excerpt: IKK-β Kinase Inhibitory Assay.
• (1) Preparation of IKK-β Kinase Protein. • A cDNA fragment encoding human IKK-β open reading frame was generated by PCR with the use of a pair of primers designed from the published sequence (Woronicz J D et al. (1997) Science 278,866-869). A template was obtained from Quickclone cDNA (Clontech) using Elongase™ Amplification kit (Life Technologies). The DNA fragments generated by PCR were gel-purified and subcloned into pBluescript. The cDNA fragment cloned in pBluescript was inserted into pcDNA3.1/His C KpnI/NotI, and transferred into pVL1393 SmaI/XbaI (Pharmingen) to construct a baculovirus transfer vector. Then the vector, together with the linearized baculovirus (BaculoGold™, Pharmingen) was used to transfect Sf21 cells (Invitrogen, San Diego, Calif.). Generated recombinant baculovirus was cloned and amplified in Sf21 cells, grown in TNM-FH insect cell medium (Life Technologies, Inc.) supplemented with 10% FCS, […] Gentamycin, 0.1% Pluronic F-68 (Life Technologies, Inc.) as suspension culture (200 ml in 1 L Erlenmeyer flask; 27° C.; 130 rpm). Sf21 cells were infected with this amplified virus with a multiplicity of infection of 5 following standard protocols (Crossen R, Gruenwald S (1997) Baculovirus Expression Vector System Instruction Manual, Pharmingen Corporation) and harvested 48 hrs. later. The cells were lysed to obtain the produced chimeric protein of IKK-β kinase fused by histidine (His-tagged IKK-beta). • (2) The Preparation of Purified GST-IκBα Fusion Proteins • An expression vector containing the nucleotide sequence encoding fusion protein of GST with amino acid residues 1 to 54 of IκBα under the control of an IPTG-inducible promoter was constructed. The expression vector was introduced in E. coli and the transformant was cultured and lysed to obtain a GST-IκBα fusion protein. Then the resulting GST-IκBα fusion protein was purified and biotinated for kinase assay. • (3) The Measurement of IKK-β Kinase Activity • The 96-well format kinase assay of IKK-β was performed to test the inhibitory activity of the compounds of the present invention. First, 5 μl of a test compound was put in the presence of 2.5% dimethyl sulfoxide (DMSO) in each well in a U-bottomed 96-well plate (Falcon). For control wells of background (BG) and total phosphorylation (TP), 5 μl of 2.5% DMSO was put. Recombinant IKK-β (final 0.6 μg/ml) and bio-GST-IκBα (1-54) (final 0.2 μM) were diluted in 25 μl of 2×kinase buffer β (40 mM Tris-HCl, pH 7.6, 40 mM MgCl2, 40 mM β-glycerophosphate, 40 mM p-nitrophenyl-phosphate, 2 mM EDTA, 40 mM creatine phosphate, 2 mM DTT, 2 mM Na3VO4, 0.2 mg/ml BSA and 0.8 mM phenylmethylsulfonyl fluoride) and transferred to the 96-well plate. Bio-GST-IκBα (1-54) in 25 μl of 2×kinase buffer β without IKK-β was transferred to BG wells. Then 20 μl of 12.5 μM ATP, 62.5 μCi/ml [γ-^33P] ATP (Amersham Pharmacia Biotech) was added and the resulting mixture was incubated for 2 hrs. at room temperature. The kinase reactions were terminated by the addition of 150 μl of termination buffer (100 mM EDTA, 1 mg/ml BSA, 0.2 mg NaN3). One handred and fifty μl of the sample was transferred to a streptavidin-coated, white MTP (Steffens Biotechniche Analysen GmbH #08114E14. FWD) to capture the biotinylated substrates. After 1 hr. of incubation, non-bound radioactivity was eliminated by washing the wells five times with 300 μl of washing buffer including 0.9% NaCl and 0.1% (w/v) Tween-20 with the use of a MW-96 plate washer (BioTec). The bound radioactivity was determined after the addition of 170 μl MicroScint-PS scintillation cocktail (Packard) using a TopCount scintillation counter. Syk Tyrosine Kinase Inhibitory Assay for Selectivity. • (1) Preparation of Syk Protein • A cDNA fragment encoding human Syk openreading frame was cloned from total RNA of human Burkitt's lymphoma B cell lines, Raji (American Type Culture Collection), with the use of RT-PCR method. […]

[2] = test system: RANTES production in response to TNF-α from A549 cells; assay: RANTES production in response to TNF-α from A549 cells; assay type: cell-based, human; settings: Homo sapiens, A549, 24 h, 100 ng/ml TNF-α, compounds of about 40 to 90% purity, read-out: Cellular activity grade (A549, IC50)

Structure (SMILES)	IC50 [1] [nM]	IC50 [2] [nM]
CC(=O)Nc1ccc(-c2cc(-c3ccccc3O)nc(N)c2C#N)cc1OCCN1CCCCC1 [Example 9, N-{4-[2-amino-3-cyano-6-(2-hydroxyphenyl)-4-pyridinyl]-2-[2-(1-piperidinyl)ethoxy]phenyl}acetamide ditrifluoroacetate]	500 to 2000	1000 to 10000
CC(=O)Nc1ccc(-c2cc(-c3ccccc3O)nc(N)c2C#N)cc1O [Example 2-16]	< 500	1000 to 10000
N#Cc1c(-c2cccc(N)c2)cc(-c2ncccc2O)nc1N [Example 1-21]	2000 to 10000	1000 to 10000
N#Cc1c(-c2cccc(NC(=O)[C@@H](N)CC(=O)O)c2)cc(-c2ccccc2O)nc1N [Example 2-03]	500 to 2000	> 10000
COc1cccc(O)c1-c1cc(-c2cccc(NC(=O)C3CCC(=O)O3)c2)c(C#N)c(N)n1 (stereo not drawn) [Example 1-12]	500 to 2000	> 10000
N#Cc1c(-c2cccc(NC(=O)C(O)CCC(=O)O)c2)cc(-c2cc(F)ccc2O)nc1N (stereo not drawn) [Example 1-16]	500 to 2000	> 10000
N#Cc1c(-c2cccc(N)c2)cc(-c2ccccc2O)nc1N [Example 1-07]	2000 to 10000	> 10000
Cc1ccc(O)c(-c2cc(-c3cccc(NC(=O)CCN4CCCCC4)c3)c(C#N)c(N)n2)c1 [Example 2-07]	2000 to 10000	> 10000
CN1CCN(C(=O)Nc2cccc(-c3cc(-c4ccccc4O)nc(N)c3C#N)c2)CC1 [Example 2-08]	2000 to 10000	1000 to 10000
N#Cc1c(-c2cccc(NC(=O)C3CCC(=O)N3)c2)cc(-c2ccccc2O)nc1N (stereo not drawn) [Example 1-05]	2000 to 10000	> 10000

Second part, the compound after the results:

IC50 [1] [nM]	IC50 [2] [nM]	Structure (SMILES)
< 500	> 10000	N#Cc1c(-c2cccc(NC(=O)CNCCCO)c2)cc(-c2ccccc2O)nc1N [Example 4-20]
2000 to 10000	1000 to 10000	CCOC(=O)C1CCCN(CCC(=O)Nc2cccc(-c3cc(-c4ccccc4O)nc(N)c3C#N)c2)C1 (stereo not drawn) [Example 4-27]
500 to 2000	> 10000	COCCNCC(=O)Nc1cccc(-c2cc(-c3ccccc3O)nc(N)c2C#N)c1 [Example 4-24]
< 500	1000 to 10000	CN(C)c1ccc(-c2cc(-c3ccccc3O)nc(N)c2C#N)cc1NC(=O)CCN [Example 3-07]
< 500	1000 to 10000	N#Cc1c(-c2ccccc2C(=O)NCCN2CCCCC2)cc(-c2ccccc2O)nc1N [Example 6-03]
500 to 2000	1000 to 10000	CN(C)CC(=O)Nc1cccc(-c2cc(-c3ccccc3O)nc(N)c2C#N)c1 [Example 4-22]
< 500	1000 to 10000	CC(C)C[C@H](N)C(=O)Nc1cc(-c2cc(-c3ccccc3O)nc(N)c2C#N)ccc1N1CCC(NC(=O)C(F)(F)F)C1 (stereo partly drawn) [Example 3-16]
< 500	1000 to 10000	CN(C)[C@H]1CCN(c2ccc(-c3cc(-c4ccccc4O)nc(N)c3C#N)cc2NC(=O)CNCC2CC2)C1 [Example 3-14]
< 500	1000 to 10000	CN(C)c1ccc(-c2cc(-c3ccccc3O)nc(N)c2C#N)cc1NC(=O)CCN1CCCCC1 [Example 3-08]
2000 to 10000	> 10000	Nc1cccc(-c2cc(-c3ccccc3O)nc(N)c2C(=O)O)c1 [Example 7-1, Sodium 2-amino-4-(3-aminophenyl)-6-(2-hydroxyphenyl)nicotinate]
500 to 2000	> 10000	N#Cc1c(-c2ccc(C(=O)O)cc2)cc(-c2ccccc2O)nc1N [Example 5-02]
2000 to 10000	> 10000	NC(=O)c1c(-c2cccc(NC(=O)C(O)CCC(=O)O)c2)cc(-c2ccccc2O)nc1N (stereo not drawn) [Example 7-2, Sodium 5-({3-[2-amino-3-(aminocarbonyl)-6-(2-hydroxyphenyl)-4-pyridinyl]-phenyl}amino)-4-hydroxy-5-oxopentanoate]
500 to 2000	1000 to 10000	CN1CCN(CC(=O)Nc2cccc(-c3cc(-c4ccccc4O)nc(N)c3C#N)c2)CC1 [Example 4-02]
2000 to 10000	1000 to 10000	N#Cc1c(-c2ccc(N3CCCCC3)c(NC(=O)CCN3CCCCC3)c2)cc(-c2ccccc2O)nc1N [Example 3-10]
